Like-named read-outs stand apart in the source and are kept apart here.
Experiments:
PARP1 = PARP1 (Homo sapiens (Human), UniProt P09874); experiment: PARP fluorescence anisotropy binding assay, PARP1
Protocol: Recombinant full length 6HIS tagged PARP1 protein was diluted to 6 nM with 50 mM Tris pH 8, 0.001% Triton X100, 10 mM MgCl2, 150 mM NaCl and incubated for four hours with an equivalent volume of 2 nM fluorescent probe diluted with 50 mM Tris pH 8, 0.001% Triton X100, 10 mM MgCl2, 150 mM NaCl. The final DMSO concentration of the probe was kept below 1% (v/v).

PARP2 = PARP2 (Homo sapiens (Human), UniProt Q9UGN5); experiment: PARP fluorescence anisotropy binding assay, PARP2
Method in brief: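 Recombinant full-length human PARP2 (6 nM before mixing) incubated 4 h with equal volume of 2 nM fluorescent probe in 50 mM Tris pH 8, 10 mM MgCl2, 150 mM NaCl, 0.001% Triton X100. Compound displacement measured as change in probe fluorescence anisotropy; IC50 from four-parameter logistic fit.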

PARP3 = PARP3 (Homo sapiens (Human), UniProt Q9Y6F1); experiment: PARP fluorescence anisotropy binding assay, PARP3
PARP3, sequence (Q9Y6F1 whole entry): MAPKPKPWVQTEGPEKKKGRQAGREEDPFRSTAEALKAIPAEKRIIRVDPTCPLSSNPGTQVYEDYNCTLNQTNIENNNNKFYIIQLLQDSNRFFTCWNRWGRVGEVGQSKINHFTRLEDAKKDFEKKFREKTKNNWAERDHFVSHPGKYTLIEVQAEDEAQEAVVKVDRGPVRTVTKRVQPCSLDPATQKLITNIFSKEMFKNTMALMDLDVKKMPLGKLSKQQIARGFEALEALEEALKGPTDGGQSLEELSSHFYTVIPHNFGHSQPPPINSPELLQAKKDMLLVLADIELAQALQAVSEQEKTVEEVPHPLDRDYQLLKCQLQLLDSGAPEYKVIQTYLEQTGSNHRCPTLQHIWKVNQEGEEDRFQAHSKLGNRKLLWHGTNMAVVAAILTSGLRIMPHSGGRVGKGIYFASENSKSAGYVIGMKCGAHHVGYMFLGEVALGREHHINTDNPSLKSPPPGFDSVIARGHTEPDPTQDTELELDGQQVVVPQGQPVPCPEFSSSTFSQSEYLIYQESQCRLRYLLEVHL
Protocol: Recombinant full length PARP3 protein was diluted to 100 nM with 50 mM Tris pH 8, 0.001% Triton X100, 10 mM MgCl2, 150 mM NaCl and incubated for four hours with an equivalent volume of 6 nM fluorescent probe diluted with 50 mM Tris pH 8, 0.001% Triton X100, 10 mM MgCl2, 150 mM NaCl. The final DMSO concentration of the probe was kept below 1% (v/v).

PARP5a = PARP5a (Homo sapiens (Human), UniProt O95271); experiment: PARP fluorescence anisotropy binding assay, PARP5a
PARP5a, sequence (O95271 1112-1317): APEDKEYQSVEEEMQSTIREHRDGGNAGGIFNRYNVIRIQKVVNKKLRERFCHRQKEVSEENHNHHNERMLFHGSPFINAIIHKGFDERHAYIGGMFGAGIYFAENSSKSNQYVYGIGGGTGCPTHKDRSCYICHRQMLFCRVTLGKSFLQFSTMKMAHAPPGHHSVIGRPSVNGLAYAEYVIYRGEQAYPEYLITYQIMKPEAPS
Protocol: Recombinant PARP5a binding domain was diluted to 160 nM with 50 mM Tris pH 8, 0.001% Triton X100, 10 mM MgCl2, 150 mM NaCl and incubated for four hours with an equivalent volume of 6 nM fluorescent probe diluted with 50 mM Tris pH 8, 0.001% Triton X100, 10 mM MgCl2, 150 mM NaCl. The final DMSO concentration of the probe was kept below 1% (v/v).

PARP6 = PARP6 (Homo sapiens (Human), UniProt Q2NL67); experiment: PARP fluorescence anisotropy binding assay, PARP6
PARP6, sequence (Q2NL67 whole entry): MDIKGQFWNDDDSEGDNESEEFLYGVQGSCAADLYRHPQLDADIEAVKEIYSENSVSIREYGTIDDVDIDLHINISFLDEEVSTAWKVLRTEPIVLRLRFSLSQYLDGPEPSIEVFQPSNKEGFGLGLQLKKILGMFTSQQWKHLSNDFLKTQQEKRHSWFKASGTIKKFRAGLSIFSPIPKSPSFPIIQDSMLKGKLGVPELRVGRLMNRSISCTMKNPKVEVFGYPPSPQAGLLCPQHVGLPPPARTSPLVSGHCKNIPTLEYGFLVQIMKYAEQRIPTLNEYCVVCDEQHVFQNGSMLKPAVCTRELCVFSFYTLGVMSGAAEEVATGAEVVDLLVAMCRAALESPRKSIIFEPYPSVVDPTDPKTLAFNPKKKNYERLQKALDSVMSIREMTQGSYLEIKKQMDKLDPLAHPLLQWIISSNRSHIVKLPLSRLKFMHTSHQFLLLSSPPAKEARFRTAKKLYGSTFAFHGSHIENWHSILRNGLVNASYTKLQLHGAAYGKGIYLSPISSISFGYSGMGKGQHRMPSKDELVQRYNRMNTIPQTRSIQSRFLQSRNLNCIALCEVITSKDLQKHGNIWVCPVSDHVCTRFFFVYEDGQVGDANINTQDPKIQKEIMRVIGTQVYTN
Protocol: Recombinant full length GST tagged PARP6 protein was diluted to 160 nM with 50 mM Tris pH 8, 0.001% Triton X100, 10 mM MgCl2, 150 mM NaCl and incubated for four hours with an equivalent volume of 6 nM fluorescent probe diluted with 50 mM Tris pH 8, 0.001% Triton X100, 10 mM MgCI2, 150 mM NaCl. The final DMSO concentration of the probe was kept below 1% (v/v).
Fluorescence anisotropy of the probe when bound to the proteins was measured using a BMG Pherastar FSX® in the presence of test compounds or solvent control and the effect on anisotropy determined. % inhibition values for different test compound concentrations were calculated and fitted to a four parameter logistic plot in order to determine the IC50 value. Where necessary, the compound K, can be determined from the IC50 value using a Munson Rodbard equation defined in Anal Biochem. 1980 Sep. 1; 107(1):220-39 and is based on the known KD of the probe binding to the relevant PARP protein

BRCA2 (−/−) DLD1 cells = experiment: PARP proliferation assay (7 day compound dosing), BRCA2 (−/−) DLD1; format: cell-based; details: read-out: BRCA2 −/− DLD-1 prolif. 7 d IC50
Protocol: (§1) DLD1 and BRCA2 (−/−) DLD1 cells were harvested to a density of 5000 cells/ml and 2.5E4 cells/ml respectively in complete media, 40 μL/well seeded into 384-well plates (Greiner, Kremsmunster, Austria; 781090) using a Multidrop Combi then incubated at 37° C., 5% CO2 overnight. Next day (Day 1) using a Multidrop Combi add sytox green (5ul, 2 uM) and saponin (10 ul, 0.25% stock) to a day 0 plate, seal the plate using a black adhesive lid and incubate for >3 h at it. Cells were imaged using Cell Insight (Thermo Fisher) fitted with a 4x objective. Test compounds are added using an Echo 555 and placed in incubator maintained at 37° C., 5% CO2 and incubated for 7 days. On Day 8 add sytox green (5ul, 2 uM) and then saponin (10 ul, 0.25% stock) to plates, seal the plate using a black adhesive lid and incubate for >3 h at it. Read all cells on the Cell Insight with 4× Objective. The rate of proliferation is determined in Genedata by assessing the total cell number output from the Cell Insight for Day 0 and Day 8 plates.

hERG [1] = target: T1, hERG (Homo sapiens (Human), UniProt Q12809); experiment: hERG IC50
T1 sequence (Q12809 whole entry): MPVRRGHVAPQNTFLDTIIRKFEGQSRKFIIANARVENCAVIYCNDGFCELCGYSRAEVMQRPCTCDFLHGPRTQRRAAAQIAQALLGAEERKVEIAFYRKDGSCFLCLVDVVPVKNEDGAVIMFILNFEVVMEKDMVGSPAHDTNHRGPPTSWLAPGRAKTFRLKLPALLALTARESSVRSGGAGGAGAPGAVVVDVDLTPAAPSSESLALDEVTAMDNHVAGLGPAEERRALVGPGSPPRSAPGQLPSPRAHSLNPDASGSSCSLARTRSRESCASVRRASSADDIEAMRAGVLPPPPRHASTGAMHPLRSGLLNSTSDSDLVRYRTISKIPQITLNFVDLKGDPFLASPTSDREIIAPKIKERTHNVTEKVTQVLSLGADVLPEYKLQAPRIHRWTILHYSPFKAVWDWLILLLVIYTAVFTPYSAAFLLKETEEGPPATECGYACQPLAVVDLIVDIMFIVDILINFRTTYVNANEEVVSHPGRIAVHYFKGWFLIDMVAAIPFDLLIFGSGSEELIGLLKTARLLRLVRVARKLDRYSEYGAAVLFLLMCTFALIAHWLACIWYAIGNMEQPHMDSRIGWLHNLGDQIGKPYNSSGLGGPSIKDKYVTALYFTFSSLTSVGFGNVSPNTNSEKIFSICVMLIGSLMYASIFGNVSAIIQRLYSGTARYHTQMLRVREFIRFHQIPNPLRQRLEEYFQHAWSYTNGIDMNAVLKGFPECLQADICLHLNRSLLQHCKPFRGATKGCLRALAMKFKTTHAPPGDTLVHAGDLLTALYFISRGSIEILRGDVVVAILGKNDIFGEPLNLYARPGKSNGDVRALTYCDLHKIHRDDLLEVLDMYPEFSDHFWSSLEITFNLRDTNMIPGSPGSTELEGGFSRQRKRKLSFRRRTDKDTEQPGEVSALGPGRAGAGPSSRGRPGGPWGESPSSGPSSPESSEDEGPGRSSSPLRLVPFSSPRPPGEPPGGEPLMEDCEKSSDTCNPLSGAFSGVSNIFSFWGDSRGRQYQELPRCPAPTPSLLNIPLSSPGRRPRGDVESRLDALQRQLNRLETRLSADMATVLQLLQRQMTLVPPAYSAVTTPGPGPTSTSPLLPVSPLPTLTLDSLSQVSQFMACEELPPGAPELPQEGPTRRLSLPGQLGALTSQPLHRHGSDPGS

[2] = system: MDCKII cells expressing MDR1 and BCRP; experiment: In vitro human transporter efflux (MDCK-MDR1-BCRP); details: Papp(B to A)/Papp(A to B), 90-min incubation
Protocol: (§2) MDCKII cells expressing MDR1 and BCRP were seeded onto polyethylene membranes in 96-well Transwell insert systems at a density to form a confluent cell monolayer. […] The final percent volume of the organic solvent was less than 1%. Permeation of the test compounds from A to B direction and from B to A direction was determined over a 90-min incubation at 37° C. and 5% CO2 with a relative humidity of 95%. At the end of the incubation, samples from the apical and basolateral side were taken and then precipitated with cold acetonitrile containing internal standard. After centrifugation at 4000 rpm, the supernatant was diluted with 0.1% formic acid aqueous solution and quantified by LC-MS/MS. The integrity of the cell monolayers was confirmed by using the marker Lucifer yellow.
(§3) The permeability coefficient (1×10-6 cm/s) was calculated using the following equation
(§4) (1) The Efflux Ratio was Calculated Using the Following Equation
Efflux ratio=Papp(B to A)/Papp(A to B)
(§5) (2) where dCr/dt is the cumulative concentration of the compound in the receiver chamber as a function of time (in μM/s); Vr is the solution volume in the receiver chamber (0.1 ml on the apical side and 0.3 ml on the basolateral side); A is the surface area for the transport, that is, 0.11 cm2 for the area of the monolayer; and C0 is the initial concentration in the donor chamber (in μM).

[3] = 30 mg/m^2 per day, days 1, 2 and 3 every 21 days, in combination with radiation therapy; cited from earlier work
DLD1 cells = experiment: PARP proliferation assay (7 day compound dosing), WT DLD1; format: cell-based; details: read-out: WT DLD-1 prolif. 7 d IC50
Protocol: as §1

hERG [4] = target: T1, hERG
[5] = system: MDCKII cells expressing MDR1 and BCRP
Protocol: as §2, §3, §4
Efflux ratio=Papp(B to A)/Papp(A to B)
as §5

PARP2, sequence (Q9UGN5 whole entry): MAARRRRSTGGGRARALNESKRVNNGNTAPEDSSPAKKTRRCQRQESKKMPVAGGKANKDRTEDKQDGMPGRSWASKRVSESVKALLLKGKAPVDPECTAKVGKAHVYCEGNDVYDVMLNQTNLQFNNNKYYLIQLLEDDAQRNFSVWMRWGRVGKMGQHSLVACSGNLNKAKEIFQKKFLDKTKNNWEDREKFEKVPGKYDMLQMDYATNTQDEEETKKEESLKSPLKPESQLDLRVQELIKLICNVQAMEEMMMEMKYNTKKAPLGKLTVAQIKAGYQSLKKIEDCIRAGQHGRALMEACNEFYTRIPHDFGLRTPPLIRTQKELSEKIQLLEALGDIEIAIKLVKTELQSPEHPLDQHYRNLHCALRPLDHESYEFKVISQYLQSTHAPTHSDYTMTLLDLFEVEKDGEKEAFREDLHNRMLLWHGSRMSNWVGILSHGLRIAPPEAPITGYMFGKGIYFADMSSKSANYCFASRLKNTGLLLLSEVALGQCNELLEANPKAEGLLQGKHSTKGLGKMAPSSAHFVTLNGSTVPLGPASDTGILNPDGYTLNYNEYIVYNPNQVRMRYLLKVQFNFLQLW
PARP1, sequence (P09874 whole entry): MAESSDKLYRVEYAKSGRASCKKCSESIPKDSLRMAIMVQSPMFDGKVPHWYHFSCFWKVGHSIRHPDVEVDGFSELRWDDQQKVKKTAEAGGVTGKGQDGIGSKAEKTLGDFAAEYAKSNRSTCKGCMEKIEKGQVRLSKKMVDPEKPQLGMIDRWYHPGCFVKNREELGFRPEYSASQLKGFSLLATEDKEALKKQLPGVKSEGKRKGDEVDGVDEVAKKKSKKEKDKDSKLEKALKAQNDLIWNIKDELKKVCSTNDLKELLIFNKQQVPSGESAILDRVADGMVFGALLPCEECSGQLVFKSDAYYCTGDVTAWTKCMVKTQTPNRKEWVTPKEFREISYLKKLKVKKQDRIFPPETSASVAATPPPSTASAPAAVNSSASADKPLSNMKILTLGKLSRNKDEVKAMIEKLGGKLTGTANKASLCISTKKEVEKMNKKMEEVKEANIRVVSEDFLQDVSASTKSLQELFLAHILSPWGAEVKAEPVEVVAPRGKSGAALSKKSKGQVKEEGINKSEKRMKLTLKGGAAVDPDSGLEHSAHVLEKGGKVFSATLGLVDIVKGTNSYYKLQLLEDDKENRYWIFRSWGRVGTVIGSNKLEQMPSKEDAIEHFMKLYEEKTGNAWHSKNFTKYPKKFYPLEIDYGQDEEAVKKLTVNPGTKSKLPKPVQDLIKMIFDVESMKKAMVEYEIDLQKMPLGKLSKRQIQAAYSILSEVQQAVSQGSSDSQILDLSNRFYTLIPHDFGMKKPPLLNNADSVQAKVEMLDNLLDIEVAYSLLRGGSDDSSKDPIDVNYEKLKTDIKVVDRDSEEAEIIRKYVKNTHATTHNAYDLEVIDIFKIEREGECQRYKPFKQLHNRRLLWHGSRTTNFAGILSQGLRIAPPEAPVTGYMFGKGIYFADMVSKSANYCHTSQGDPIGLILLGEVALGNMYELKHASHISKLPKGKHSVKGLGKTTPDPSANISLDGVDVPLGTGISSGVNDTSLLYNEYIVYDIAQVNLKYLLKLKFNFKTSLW

| SMILES | IC50 (PARP1) [µM] | IC50 (PARP2) [µM] | IC50 (PARP3) [µM] | IC50 (PARP5a) [µM] | IC50 (PARP6) [µM] | IC50 (BRCA2 (−/−) DLD1 cells) [µM] | IC50 (hERG [1]; read-out: hERG IC50) [µM] | MDCK-MDR1-BCRP Efflux Ratio [2] | safety and tolerability [3] | IC50 (DLD1 cells) [µM] | IC50 (hERG [4]) [µM] | MDCK-MDR1-BCRP Efflux Ratio [5] | IC50 (hERG [1]) [µM] |
| --- | --- | --- | --- | --- | --- | --- | --- | --- | --- | --- | --- | --- | --- |
| CNC(=O)c1ccc(N2CCN(Cc3ccc4nc(C(C)F)c(=O)[nH]c4c3F)CC2)c(C)n1 (single isomer, unassigned) [Example 14, 5-[4-[[5-fluoro-2-[(1S OR 1R)-1-fluoroethyl]-3-oxo-4H-quinoxalin-6-yl]methyl]piperazin-1-yl]-N,6-dimethyl-pyridine-2-carboxamide] | 0.013 | > 83 | 52 | > 100 | > 100 | 0.015 | > 40 | 3.7 | – | – | – | – | – |
| CNC(=O)c1ccc(N2CCN(Cc3ccc4nc(C(C)F)c(=O)[nH]c4c3F)CC2)c(C)n1 (single isomer, unassigned) [Example 15, 5-[4-[[5-fluoro-2-[(1S OR 1R)-1-fluoroethyl]-3-oxo-4H-quinoxalin-6-yl]methyl]piperazin-1-yl]-N,6-dimethyl-pyridine-2-carboxamide] | 0.012 | > 100 | 43 | > 100 | > 100 | 0.014 | > 38 | 3.7 | – | – | – | – | – |
| O[C@H]([C@H](O)[C@@H]1CO1)[C@H]1CO1 [VAL-083, dianhydrogalactitol] | – | – | – | – | – | – | – | – | generally safe and well tolerated | – | – | – | – |
| CNC(=O)c1ccc(N2CCN(Cc3ccc4nc([C@H](C)F)c(=O)[nH]c4c3F)CC2)c(F)n1 (single isomer, unassigned) [Example 13, 6-fluoro-5-[4-[[5-fluoro-2-[(1S OR 1R)-1-fluoroethyl]-3-oxo-4H-quinoxalin-6-yl]methyl]piperazin-1-yl]-N-methyl-pyridine-2-carboxamide] | 0.009 | > 100 | 62 | > 100 | > 100 | 0.019 | – | – | – | 22 | > 40 | 3.0 | – |
| CNC(=O)c1ccc(N2CCN(Cc3ccc4ncc(=O)[nH]c4c3F)CC2)c(Cl)n1 [Example 34, 6-chloro-5-[4-[(5-fluoro-3-oxo-4H-quinoxalin-6-yl)methyl]piperazin-1-yl]-N-methyl-pyridine-2-carboxamide] | 0.026 | > 100 | – | – | – | – | – | – | – | – | – | – | 29 |
| CNC(=O)c1ccc(N2CCN(Cc3ccc4nc([C@H](C)F)c(=O)[nH]c4c3F)CC2)c(F)n1 (single isomer, unassigned) [Example 12, 6-fluoro-5-[4-[[5-fluoro-2-[(1S OR 1R)-1-fluoroethyl]-3-oxo-4H-quinoxalin-6-yl]methyl]piperazin-1-yl]-N-methyl-pyridine-2-carboxamide] | 0.015 | – | 85 | > 100 | > 100 | 0.008 | > 40 | 4.2 | – | – | – | – | – |

From US20250082630A1, “METHODS OF TREATING BRAIN TUMOURS AND NEUROBLASTOMAS” (AstraZeneca AB, priority 2021, published 2025)
